Test results as given in patent US20230365592A1 (Agios Pharmaceuticals, Inc., priority 2022, published 2023).

target: T1, human PAH with the R408W mutation (Homo sapiens, UniProt P00439, R408W); assay: Cell Based Phenylalanine Flux Assay; conditions: A375 cells expressing human R408W PAH; 24 hrs compound incubation; 13C-Tyrosine by LC-MS; average where tested multiple times; read-out: AC50;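 note: after compound treatment, cells received sepiapterin plus isotope-labelled Phenylalanine for 4 hours, then labelled Tyrosine in the medium was quantified, 10-point 2-fold dilution series run in duplicate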
T1 construct: expressed in transfected cells
T1 sequence (P00439 1-452 R408W): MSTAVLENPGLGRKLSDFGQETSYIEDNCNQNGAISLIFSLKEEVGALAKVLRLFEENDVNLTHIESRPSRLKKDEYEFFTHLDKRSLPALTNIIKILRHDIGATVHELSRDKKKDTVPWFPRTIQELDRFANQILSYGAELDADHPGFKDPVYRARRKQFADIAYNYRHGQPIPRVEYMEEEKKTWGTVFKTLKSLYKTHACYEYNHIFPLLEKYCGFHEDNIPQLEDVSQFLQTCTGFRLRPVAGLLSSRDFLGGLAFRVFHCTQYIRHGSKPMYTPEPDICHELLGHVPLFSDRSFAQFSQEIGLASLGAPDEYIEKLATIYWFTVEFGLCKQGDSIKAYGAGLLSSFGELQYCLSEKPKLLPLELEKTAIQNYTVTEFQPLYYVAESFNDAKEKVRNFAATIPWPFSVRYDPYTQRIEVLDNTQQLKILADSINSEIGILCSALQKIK

| Structure (SMILES) | AC50 [nM] |
| --- | --- |
| O=C(c1nnc(C2CC2)o1)N1CCc2[nH]cnc2[C@H]1c1cc2cccc(C(F)F)n2n1 [Example 1390, (S)-(5-cyclopropyl-1,3,4-oxadiazol-2-yl)(4-(7-(difluoromethyl)pyrazolo[1,5-a]pyridin-2-yl)-6,7-dihydro-1H-imidazo[4,5-c]pyridin-5(4H)-yl)methanone] | 500 to 1000 |
| O=C(c1nnc(C2CC2)o1)N1CCc2[nH]cnc2[C@@H]1c1cc2cccc(C(F)F)n2n1 [Example 1391, (R)-(5-cyclopropyl-1,3,4-oxadiazol-2-yl)(4-(7-(difluoromethyl)pyrazolo[1,5-a]pyridin-2-yl)-6,7-dihydro-1H-imidazo[4,5-c]pyridin-5(4H)-yl)methanone] | 1000 to 5000 |
| O=C(c1nnc(-c2ncccn2)o1)N1CCc2[nH]cnc2[C@@H]1c1cc2cccc(Cl)n2n1 [Example 1392, (R)-(4-(7-chloropyrazolo[1,5-a]pyridin-2-yl)-6,7-dihydro-1H-imidazo[4,5-c]pyridin-5(4H)-yl)(5-(pyrimidin-2-yl)-1,3,4-oxadiazol-2-yl)methanone] | 1000 to 5000 |
| O=C(c1nnc(-c2ncccn2)o1)N1CCc2[nH]cnc2[C@H]1c1cc2cccc(Cl)n2n1 [Example 1393, (S)-(4-(7-chloropyrazolo[1,5-a]pyridin-2-yl)-6,7-dihydro-1H-imidazo[4,5-c]pyridin-5(4H)-yl)(5-(pyrimidin-2-yl)-1,3,4-oxadiazol-2-yl)methanone] | < 500 |
| Cc1ncccc1-c1nnc(C(=O)N2CCc3[nH]cnc3[C@H]2c2cc3c(C(F)F)cccn3n2)o1 [Example 1394, (S)-(4-(4-(difluoromethyl)pyrazolo[1,5-a]pyridin-2-yl)-6,7-dihydro-1H-imidazo[4,5-c]pyridin-5(4H)-yl)(5-(2-methylpyridin-3-yl)-1,3,4-oxadiazol-2-yl)methanone] | < 500 |
| Cc1ncccc1-c1nnc(C(=O)N2CCc3[nH]cnc3[C@@H]2c2cc3c(C(F)F)cccn3n2)o1 [Example 1395, (R)-(4-(4-(difluoromethyl)pyrazolo[1,5-a]pyridin-2-yl)-6,7-dihydro-1H-imidazo[4,5-c]pyridin-5(4H)-yl)(5-(2-methylpyridin-3-yl)-1,3,4-oxadiazol-2-yl)methanone] | > 5000 |
| Cc1cccc(-c2nnc(C(=O)N3CCc4[nH]cnc4[C@H]3c3cc4cccc(Cl)n4n3)o2)n1 [Example 1396, (S)-(4-(7-chloropyrazolo[1,5-a]pyridin-2-yl)-6,7-dihydro-1H-imidazo[4,5-c]pyridin-5(4H)-yl)(5-(6-methylpyridin-2-yl)-1,3,4-oxadiazol-2-yl)methanone] | < 500 |
| Cc1cccc(-c2nnc(C(=O)N3CCc4[nH]cnc4[C@@H]3c3cc4cccc(Cl)n4n3)o2)n1 [Example 1397, (R)-(4-(7-chloropyrazolo[1,5-a]pyridin-2-yl)-6,7-dihydro-1H-imidazo[4,5-c]pyridin-5(4H)-yl)(5-(6-methylpyridin-2-yl)-1,3,4-oxadiazol-2-yl)methanone] | 1000 to 5000 |
| Cc1cccc(-c2nnc(C(=O)N3CCc4[nH]cnc4[C@@H]3c3cc4cccc(C)n4n3)o2)n1 [Example 1399, (R)-(4-(7-methylpyrazolo[1,5-a]pyridin-2-yl)-6,7-dihydro-1H-imidazo[4,5-c]pyridin-5(4H)-yl)(5-(6-methylpyridin-2-yl)-1,3,4-oxadiazol-2-yl)methanone] | 1000 to 5000 |
| Cc1cccc(-c2nnc(C(=O)N3CCc4[nH]cnc4[C@H]3c3cc4cccc(C(F)(F)F)n4n3)o2)n1 [Example 1400, (S)-(5-(6-methylpyridin-2-yl)-1,3,4-oxadiazol-2-yl)(4-(7-(trifluoromethyl)pyrazolo[1,5-a]pyridin-2-yl)-6,7-dihydro-1H-imidazo[4,5-c]pyridin-5(4H)-yl)methanone] | < 500 |
| Cc1cccc(-c2nnc(C(=O)N3CCc4[nH]cnc4[C@@H]3c3cc4cccc(C(F)(F)F)n4n3)o2)n1 [Example 1401, (R)-(5-(6-methylpyridin-2-yl)-1,3,4-oxadiazol-2-yl)(4-(7-(trifluoromethyl)pyrazolo[1,5-a]pyridin-2-yl)-6,7-dihydro-1H-imidazo[4,5-c]pyridin-5(4H)-yl)methanone] | 1000 to 5000 |
| Cn1nc(C(F)F)cc1C(=O)N1CCc2[nH]cnc2[C@H]1c1cc2cccc(C(F)F)n2n1 [Example 1402, (S)-(3-(difluoromethyl)-1-methyl-1H-pyrazol-5-yl)(4-(7-(difluoromethyl)pyrazolo[1,5-a]pyridin-2-yl)-6,7-dihydro-1H-imidazo[4,5-c]pyridin-5(4H)-yl)methanone] | 500 to 1000 |
| O=C(c1nnc(-c2ccn(C(F)F)n2)o1)N1CCc2[nH]cnc2[C@@H]1c1cc2cccc(F)n2n1 [Example 1404, (R)-(5-(1-(difluoromethyl)-1H-pyrazol-3-yl)-1,3,4-oxadiazol-2-yl)(4-(7-fluoropyrazolo[1,5-a]pyridin-2-yl)-6,7-dihydro-1H-imidazo[4,5-c]pyridin-5(4H)-yl)methanone] | 1000 to 5000 |
| O=C(c1nnc(-c2ccn(C(F)F)n2)o1)N1CCc2[nH]cnc2[C@H]1c1cc2cccc(F)n2n1 [Example 1405, (S)-(5-(1-(difluoromethyl)-1H-pyrazol-3-yl)-1,3,4-oxadiazol-2-yl)(4-(7-fluoropyrazolo[1,5-a]pyridin-2-yl)-6,7-dihydro-1H-imidazo[4,5-c]pyridin-5(4H)-yl)methanone] | < 500 |
| Cn1cc(-c2nnc(C(=O)N3CCc4[nH]cnc4[C@@H]3c3cc4cccc(C(F)F)n4n3)o2)cn1 [Example 1407, (R)-(4-(7-(difluoromethyl)pyrazolo[1,5-a]pyridin-2-yl)-6,7-dihydro-1H-imidazo[4,5-c]pyridin-5(4H)-yl)(5-(1-methyl-1H-pyrazol-4-yl)-1,3,4-oxadiazol-2-yl)methanone] | > 5000 |
| CC(C)(C)c1nnc(C(=O)N2CCc3[nH]cnc3[C@@H]2c2cc3c(C(F)F)cccn3n2)o1 [Example 1408, (R)-(5-(tert-butyl)-1,3,4-oxadiazol-2-yl)(4-(4-(difluoromethyl)pyrazolo[1,5-a]pyridin-2-yl)-6,7-dihydro-1H-imidazo[4,5-c]pyridin-5(4H)-yl)methanone] | 1000 to 5000 |
| CC(C)(C)c1nnc(C(=O)N2CCc3[nH]cnc3[C@H]2c2cc3c(C(F)F)cccn3n2)o1 [Example 1409, (S)-(5-(tert-butyl)-1,3,4-oxadiazol-2-yl)(4-(4-(difluoromethyl)pyrazolo[1,5-a]pyridin-2-yl)-6,7-dihydro-1H-imidazo[4,5-c]pyridin-5(4H)-yl)methanone] | < 500 |
| O=C(c1nnc(-c2ncccn2)o1)N1CCc2[nH]cnc2[C@@H]1c1cc2c(Cl)cccn2n1 [Example 1410, (R)-(4-(4-chloropyrazolo[1,5-a]pyridin-2-yl)-6,7-dihydro-1H-imidazo[4,5-c]pyridin-5(4H)-yl)(5-(pyrimidin-2-yl)-1,3,4-oxadiazol-2-yl)methanone] | 1000 to 5000 |
| O=C(c1nnc(-c2ncccn2)o1)N1CCc2[nH]cnc2[C@H]1c1cc2c(Cl)cccn2n1 [Example 1411, (S)-(4-(4-chloropyrazolo[1,5-a]pyridin-2-yl)-6,7-dihydro-1H-imidazo[4,5-c]pyridin-5(4H)-yl)(5-(pyrimidin-2-yl)-1,3,4-oxadiazol-2-yl)methanone] | < 500 |
| O=C(c1nnc(-c2ncccn2)o1)N1CCc2[nH]cnc2[C@H]1c1cc2c(C(F)F)cccn2n1 [Example 1413, (S)-(4-(4-(difluoromethyl)pyrazolo[1,5-a]pyridin-2-yl)-6,7-dihydro-1H-imidazo[4,5-c]pyridin-5(4H)-yl)(5-(pyrimidin-2-yl)-1,3,4-oxadiazol-2-yl)methanone] | 500 to 1000 |
